The values below come from patent US4753881A, “Purified enzyme and process therefor” (Eli Lilly and Company, priority 1986, dated 1988).

The target of experiment [1] is T1, deacetoxycephalosporin C synthetase (expandase) (Hapsidospora chrysogena, UniProt P11935).
T1 construct: prepared by sonicating fresh cell suspensions of Cephalosporium acremonium in buffer at pH 7-8; endogenous in cells; host or cells: Cephalosporium acremonium cells (crude cell extract, then chromatographic purification)
T1 sequence (P11935 1-332): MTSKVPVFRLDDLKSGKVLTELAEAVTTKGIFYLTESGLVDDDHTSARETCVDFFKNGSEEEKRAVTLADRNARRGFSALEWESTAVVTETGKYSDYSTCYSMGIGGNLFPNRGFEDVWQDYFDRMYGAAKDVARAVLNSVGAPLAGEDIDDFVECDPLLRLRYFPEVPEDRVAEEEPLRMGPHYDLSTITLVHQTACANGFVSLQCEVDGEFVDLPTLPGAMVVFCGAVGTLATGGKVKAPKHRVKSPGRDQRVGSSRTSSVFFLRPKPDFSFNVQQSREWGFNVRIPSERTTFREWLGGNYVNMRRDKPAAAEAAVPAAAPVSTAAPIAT
The experiment can be described thus: Enzyme activity assay (HPLC): expandase-catalyzed reaction, DAOC plus DAC from penicillin N. Type of experiment: biochemical, Cephalosporium acremonium. Conditions: for Maximal reactivation/stimulation of expandase activity, initial to final activity: DTT 1.0 mM, ascorbate 0.25 mM, ATP 0.05 mM, purified enzyme (step 3); for Effect on expandase function of the purified enzyme: present in the incubation mixture. The text has this:
(§1) The activity of the enzyme, which is a reflection of its purity, is expressed herein in units (U) of activity. One unit of expandase activity is defined as the amount of the enzyme required to cause formation of 1 μmole of DAOC plus DAC per minute from penicillin N. One unit of hydroxylase activity is defined as the amount of enzyme required to cause formation of 1 μmole of DAC per minute from DAOC.
(§2) The purity of the enzyme and the extent of purification during the course of the process can be measured by determining the expandase and hydroxylase activities of the chromatographic fractions via high performance liquid chromatography (HPLC) and by analyzing protein bands of chromatographic fractions via SDS-PAGE. The expandase-catalyzed reaction is conducted for 15 minutes at 30° C. with 0.28 mM penicillin N, 0.60 mM α-ketoglutarate (αKG), 0.06 mM ferrous sulfate, […], 1.00 mM dithiothreitol, 0.05 mM ATP and 0.0003-0.003 units of the enzyme in 1 ml of 50 mM Tris-HCl, pH 7.5. The hydroxylase-catalyzedreaction is conducted at 36° C. in the same medium with deacetoxycephalosporin C at a concentration of 0.05 mM instead of penicillin N.
(§3) The enzymatic reactions were interrupted by the addition of 1 ml of ethyl alcohol. The precipitate is separated by centrifugation at 4,000×g for 5 minutes and the supernatant containing the enzyme reaction products assayed by HPLC as follows. The expandase activity is determined by monitoring formation of both DAOC and DAC from penicillin N because of the apparent bifunctionality of the enzyme. The hydroxylase activity is determined by monitoring the formation of DAC from DAOC.
(§4) Aliquots (20 to 100 μl ) of the supernatant solutions are assayed for DAOC and DAC by HPLC using external standards.
(§5) A preferred HPLC system comprises the components: Model 721 system controller, Model 730 data module, Model 510EF pumps, Model 710B Waters Intelligent Sample Processor and a Lambda-Max Model 481 LC spectrophotometer (Waters Assoc., Milford, Mass.). DAC and DAOC are preferably separated by a radially packed compressed μBondapak-NH4column (0.8×10 cm) (Waters Assoc.) with a mobile phase of 2% acetic acid-0-4% methyl alcohol-6-7% acetonitrile-87-92% water; pH 3.8, a flow rate of 1.5-2.0 ml/min. and detection at 260 nm (cephalosporin chromophore). The assays are reproducible with 2% deviations for duplicate analyses of both the expandase and the hydroxylase catalyzed reactions.
For expandase assays, quantitation for DAC (in addition to that of DAOC) is corrected for penicillin N due to their coelution.

Experiment [2] has as its target T2, hydroxylase activity of the expandase-hydroxylase enzyme (Hapsidospora chrysogena, UniProt P11935).
T2 construct: prepared by sonicating fresh cell suspensions of Cephalosporium acremonium in buffer at pH 7-8; endogenous in cells; host or cells: Cephalosporium acremonium cells (crude cell extract, then chromatographic purification)
T2 sequence (P11935 1-332): T1 sequence (P11935 1-332)
Put plainly: Enzyme activity assay (HPLC): hydroxylase-catalyzed reaction, DAC from DAOC. Type of experiment: biochemical, Cephalosporium acremonium. Conditions: for Maximal reactivation/stimulation of hydroxylase activity, initial to final activity: DTT 1.0 mM, ascorbate 0.25 mM, ATP 0.05 mM, purified enzyme (step 3); for Effect on hydroxylase function of the purified enzyme: present in the incubation mixture.
Source text: as §1, §2, §3, §4
as §5, with “reactions. […]” for “reactions.”

For the molecule `O=C1O[C@H]([C@@H](O)CO)C(O)=C1O` [Ascorbate], in experiment [1], the “Reactivation of expandase activity” value was “reversibly reactivated”; the “Maximal reactivation/stimulation of expandase activity, initial to final activity” value lay in the range of 0 to 90 U × 10^-3; the “Effect on expandase function of the purified enzyme” value (“Effect on expandase function” for short) is listed as “stimulated”. For the same molecule, in experiment [2], the “Reactivation of hydroxylase activity” value was “reversibly reactivated”; the “Maximal reactivation/stimulation of hydroxylase activity, initial to final activity” value was in the range of 0 to 0.81 U × 10^-3; the “Effect on hydroxylase function of the purified enzyme” value (shortened to “Effect on hydroxylase function”) is “stimulated”.
Take `O[C@H](CS)[C@H](O)CS` (racemic) [DTT, dithiothreitol]: in experiment [1], the “Reactivation of expandase activity” value was “reversibly reactivated”; the “Maximal reactivation/stimulation of expandase activity, initial to final activity” value is 0 to 50 U × 10^-3; the “Effect on expandase function” value is given as “stimulated”. In experiment [2], the “Reactivation of hydroxylase activity” value is listed as “reversibly reactivated”; the “Maximal reactivation/stimulation of hydroxylase activity, initial to final activity” value was in the range of 0 to 0.23 U × 10^-3; the “Effect on hydroxylase function” value is “stimulated”.
Regarding `O=C(O)c1cc(SSc2ccc([N+](=O)[O-])c(C(=O)O)c2)ccc1[N+](=O)[O-]` [5,5'-dithiobis-2-nitrobenzoic acid], the “Effect on expandase function” value in experiment [1] is “inhibited”. Besides, the “Effect on hydroxylase function” value in experiment [2] is reported as “inhibited”.
On to `[Zn+2]` [zinc ion], for which the “Effect on expandase function” value in experiment [1] is recorded as “inhibited”. The “Effect on hydroxylase function” value in experiment [2] is “inhibited”.
As to `Nc1ncnc2c1ncn2[C@@H]1O[C@H](COP(=O)(O)OP(=O)(O)OP(=O)(O)O)[C@@H](O)[C@H]1O` [ATP], in experiment [1], the “Maximal reactivation/stimulation of expandase activity, initial to final activity” value fell in the range of 38 to 52 U × 10^-3 and the “Effect on expandase function” value is “stimulated”. Besides, in experiment [2], the “Maximal reactivation/stimulation of hydroxylase activity, initial to final activity” value fell in the range of 0.57 to 0.61 U × 10^-3 and the “Effect on hydroxylase function” value is reported as “stimulated”.
